Reference: article PMC6394990, “Detailed characterization of the solution kinetics and thermodynamics of biotin, biocytin and HABA binding to avidin and streptavidin” (PLoS ONE, 2019)
Several values for one entry are separate records, joined by “and”; a condition that tells them apart may be missing. Equal values may be shown once.

Columns and labels:
[1] = Time-resolved anisotropy, cone angle, unbound probe; type: physicochemical; conditions: unbound dye
Method: The lifetimes were collected in a FluoTime100 fluorescence spectrometer (PicoQuant, GmbH, Berlin, Germany) with the excitation light source provided by a picosecond pulsed diode laser (PicoQuant, GmbH, Berlin, Germany) at 470 nm and 20 MHz. The emission was collected at 520 nm through a non-fluorescing 520 nm interference filter (Oriel Corp., Stratford, CT) followed by a liquid filter of 1cm path length containing 24 mM acetate buffered dichromate at pH 4, between the sample and detector to eliminate traces of excitation light. The fluorescence decays were fit by a nonlinear least-squares minimization based on the Marquardt algorithm embedded in the Fluofit software (PicoQuant GmbH). […] The PicoQuant G factor was calculated according to: G = ∫HV(t)dt/∫HH(t)dt, where HV(t) and HH(t) were the decays collected with the emission polarizer selecting vertical and horizontal E-vector passing orientations, respectively, and the excitation polarizer set at horizontally position. […]
In a simple model, the transition moment is assumed to wobble within a cone of semi-apical angle Ω [59], where the cone axis is normal to the surface of a sphere that corresponds to the macromolecule. The angle Ω is calculated from Eq 14.

[2] = Steady-state anisotropy (rss), unbound probe; type: physicochemical
Method: (§1) The lifetimes (τ), steady state anisotropies (rss), time-resolved anisotropies (rt) and quantum yields (QY) of the complexes (at 20 ± 0.1°C and pH 8) were collected with a dye-labeled B7 probe concentration of 20–40 nM and 1040–2080 nM of either protein (AV or SAV) to ensure that only one binding site in the tetramer was filled with a ligand (AB1 filling model).
The rss measurements were collected using the Giblin-Parkhurst modification of the Wampler-Desa method as described previously. The fluorescence signal was detected in a model A-1010 Alphascan fluorimeter (Photon Technologies, Inc., Birmingham, NJ) equipped with an R928 PMT (Hamamatsu, Bridgewater, NJ). The excitation was provided by an Ar^+ ion laser (Coherent Innova 70–4 Argon, Santa Clara, CA) at 488 nm and 5–10 mW of power incident on the sample. […] The fluorimeter G factor was determined using a film polarizer and analyzer with an excitation at 488 nm provided by a xenon arc lamp (model A1010, Photon Technologies Inc, Princeton, NJ). The dissociation reactions of dye-labeled B7 and protein complexes were monitored by fluorescence changes and were also collected in the fluorimeter described above.

streptavidin (SAV) [3] = target: T1, streptavidin (SAV) (Streptomyces avidinii, UniProt P22629); experiment: Dissociation (displacement/replacement) of dye-labeled biotin complexes by unlabeled B7; type: binding; conditions: for half-time of displacement: SAV-BcO AB1
T1 construct: purchased Sigma Aldrich (St. Louis, MO)
T1 sequence (P22629 25-183): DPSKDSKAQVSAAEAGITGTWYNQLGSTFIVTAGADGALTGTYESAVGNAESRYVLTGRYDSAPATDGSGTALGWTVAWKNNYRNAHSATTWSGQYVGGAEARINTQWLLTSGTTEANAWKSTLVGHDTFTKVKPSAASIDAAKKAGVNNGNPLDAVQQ
Method: Biotin dissociation was determined using labelled biotin (BcO and BFl) displaced by unlabeled biotin using minimally occupied and fully occupied binding sites. In the minimally occupied measurements, SAV is prepared with less than one site on average occupied by labelled biotin (AB1), using 800 nM SAV and 40 nM of BcO or BFl. For saturated SAV-labelled biotin (AB4) complexes, equimolar binding sites and labelled ligand were prepared, 40 nM SAV and 40 nM of BcO or BFl. The AB1 complexes were challenged in displacement experiments with several concentrations of unlabeled B7 (1500 nM, 1750 nM, 2000 nM and 2500 nM) at 20 ± 0.1°C. In AB1, SAV had 760 nM in open sites, therefore the total challenging B7 concentrations were 740 nM, 990 nM, 1240 nM and 1740 nM, respectively. […] The 40 nM AB4 complexes were challenged with unlabeled B7 concentrations of 400 nM (10X) and 1600 nM (40X) at 20 ± 0.1°C. The dissociation reactions of AV complexes were carried out with a preformed complex of 20 nM BFl or BcO and 260 nM AV for a filling model of AB1 and challenged with unlabeled B7 at 2,000 nM.
The rss measurements were collected using the Giblin-Parkhurst modification of the Wampler-Desa method as described previously. The fluorescence signal was detected in a model A-1010 Alphascan fluorimeter (Photon Technologies, Inc., Birmingham, NJ) equipped with an R928 PMT (Hamamatsu, Bridgewater, NJ). The excitation was provided by an Ar^+ ion laser (Coherent Innova 70–4 Argon, Santa Clara, CA) at 488 nm and 5–10 mW of power incident on the sample. A photoelastic modulator (PEM-80; HINDS International, Inc., Portland, OR) was placed between the laser source and the sample compartment with a retardation level of 1.22π, and the PEM stress axis orientated 45° with respect to the E vector of the laser beam. Two signals were acquired with the PEM alternating between “on” and “off” positions for 10 seconds and the data fitted to a least squared straight line to minimize noise. A minimum of six of these independent measurements were averaged to acquire the rss values. The fluorimeter G factor was determined using a film polarizer and analyzer with an excitation at 488 nm provided by a xenon arc lamp (model A1010, Photon Technologies Inc, Princeton, NJ). The dissociation reactions of dye-labeled B7 and protein complexes were monitored by fluorescence changes and were also collected in the fluorimeter described above.
The dissociation reactions were followed by fluorescence changes, F¯(t) , in the fluorimeter and laser setup described above and tuned to 488 nm under discontinuous excitation to prevent photobleaching distortion. The signal was best fitted to the following dissociation model (Eq 10), in which the dye labeled complex dissociates into the labeled B7 probe (BFl or BcO) and the respective protein (AV or SAV).

streptavidin (SAV) [4] = target: T1, streptavidin (SAV); experiment: Fluorescence lifetimes, SAV complex; type: physicochemical; conditions: for t (1), fluorescence lifetime: complex with SAV, t for BFl and BcO, average lifetime for B-DNAds*Fl
Method: as §1
The lifetimes were collected in a FluoTime100 fluorescence spectrometer (PicoQuant, GmbH, Berlin, Germany) with the excitation light source provided by a picosecond pulsed diode laser (PicoQuant, GmbH, Berlin, Germany) at 470 nm and 20 MHz. The emission was collected at 520 nm through a non-fluorescing 520 nm interference filter (Oriel Corp., Stratford, CT) followed by a liquid filter of 1cm path length containing 24 mM acetate buffered dichromate at pH 4, between the sample and detector to eliminate traces of excitation light. The fluorescence decays were fit by a nonlinear least-squares minimization based on the Marquardt algorithm embedded in the Fluofit software (PicoQuant GmbH). Twenty-eight decays were collected per sample, the decays were grouped in four sets, consisting of seven sample decays and one Instrument Response Function, IRF, for deconvolution proposes. The decay sets were globally fitted to mono- or bi-exponential decay models that were discriminated using the statistical parameter χ^2. The rt data were acquired with the fluorimeter described above equipped with a polarizer and an analyzer to acquire the parallel VV(t) and perpendicular VH(t) decays. The PicoQuant G factor was calculated according to: G = ∫HV(t)dt/∫HH(t)dt, where HV(t) and HH(t) were the decays collected with the emission polarizer selecting vertical and horizontal E-vector passing orientations, respectively, and the excitation polarizer set at horizontally position.

| Structure (SMILES) | W [1] [°] | rss, Unbound [2] | release (displacement) of the bound probe (streptavidin (SAV) [3]; SAV-BFl complex, AB1, 30°C, challenging B7 1400 nM) [%] | Σαiτi (integrated lifetime) (streptavidin (SAV) [4]; SAV complex) [ns] | α1 (streptavidin (SAV) [4]; SAV complex) | α2 (streptavidin (SAV) [4]; SAV complex) | τ1 (streptavidin (SAV) [4]; SAV complex) [ns] | τ2 (streptavidin (SAV) [4]; SAV complex) [ns] | Lifetime τ (streptavidin (SAV) [4]; SAV complex, di-ionic fluorescein species) | Lifetime τ (streptavidin (SAV) [4]; SAV complex, mono-ionic fluorescein species) | t (1), fluorescence lifetime (streptavidin (SAV) [4]) | half-time of displacement (streptavidin (SAV) [3]; 20°C, challenging B7 740 nM) [s] | half-time of displacement (streptavidin (SAV) [3]; 20°C, challenging B7 1240 nM) [s] | half-time of displacement (streptavidin (SAV) [3]; 20°C, challenging B7 1740 nM) [s] | release amplitude of the displacement reaction (streptavidin (SAV) [3]; SAV-BcO complex challenged with unlabeled B7, 20°C) | Lifetime τ (streptavidin (SAV) [4]; SAV complex (AB1), 20°C, pH 8) [ns] |
| --- | --- | --- | --- | --- | --- | --- | --- | --- | --- | --- | --- | --- | --- | --- | --- | --- |
| O=C(CCCC[C@@H]1SC[C@@H]2NC(=O)N[C@@H]21)NCCNC(=O)c1ccc(-c2c3ccc(=O)cc-3oc3cc(O)ccc23)c(C(=O)O)c1 [BFl, Biotin-4-fluorescein] | 90 | 0.021 | 5 | 3.70 ± 0.05 | 0.61 ± 0.03 | 0.39 ± 0.03 | 4.10 ± 0.02 | 3.1 ± 0.02 | 4.1 ns and 4.1 ± 0.1 ns | 3.0 ns and 3.0 ± 0.1 ns | 3.69 ± 0.01 | – | – | – | – | – |
| NC(CCCCNC(=O)CCCC[C@@H]1SC[C@@H]2NC(=O)N[C@@H]21)C(=O)NCCCCCNC(=O)c1ccc(-c2c3cc(F)c(=O)cc-3oc3cc(O)c(F)cc23)c(C(=O)O)c1 (stereo partly shown) [BcO, Oregon green 488 Biocytin] | 90 | 0.023 | – | – | – | – | – | – | – | – | 3.98 ± 0.01 | 56.6 | 33.9 | 24.2 | ~ 79% and 79 ± 1% | 3.98 ± 0.01 |
